Assay [1] addresses FKBP (Homo sapiens, UniProt P62942, F37V). As to conditions: F36V FKBP derivative vs wild-type FKBP; cited from earlier work.
In assay [2] the test system is ARPE-19 cells. In words: Shield-1 concentration dependent progeny virus production (TCID50 assay). The format is cell-based, human. As to conditions: FKBP derivative fused to UL51 or UL52. The method, then:
FKBP fusion proteins used in this study comprise an essential protein (IE1/2, UL51, UL52, UL79, UL84, UL87, IE1/2-UL51) fused to an FKBP derivative (ddIE1/2, ddUL51, ddUL52, ddUL79, ddUL84, ddUL87, and ddIE1/2-UL51). ARPE-19 cells were infected with the various rdCMV viruses comprising the noted fusion proteins, at a multiplicity of 0.01 PFU/cell for 1 hour, washed twice with fresh medium, and incubated in the growth medium containing 0, 0.05, 0.1 0.5 or 2 μM of Shield-1. Seven days post infection, the cell free virus was collected, and virus titers were determined by TCID50 assay on ARPE-19 cells in the presence of 2 μM of Shield 1.
Varying concentrations of Shld-1 were used in additional experiments to further assess viral replication in the presence or absence of Shld-1. ARPE-19 cells were infected by the gH expressing CMV that also contained a FKBP derivative fused to an essential protein at MOI of […]. After infection for 1 hour, the cells were washed twice with fresh medium to remove Shld-1. […] Virus titers were determined by a 50% Tissue Culture Infective Dose (TCID50) assay. Briefly, this dilution assay quantifies the amount of virus required to kill 50% of infected hosts. […] After incubation, the percentage of cell death (i.e. infected cells) was manually observed and recorded for each virus dilution. […]

We go through 1 molecule from patent US20150307850A1, “CONDITIONAL REPLICATING VIRAL VECTORS” (priority 2012, published 2015).

Sequence of FKBP (P62942 2-108 F37V limits assumed): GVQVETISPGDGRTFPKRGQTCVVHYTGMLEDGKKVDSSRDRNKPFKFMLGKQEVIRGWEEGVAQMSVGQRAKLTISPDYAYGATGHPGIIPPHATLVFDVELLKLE

Regarding `CC[C@H](C(=O)N1CCCC[C@H]1C(=O)O[C@H](CCc1ccc(OC)c(OC)c1)c1cccc(OCCN2CCOCC2)c1)c1cc(OC)c(OC)c(OC)c1` [Shield-1], the “Binding to the F36V derivative compared to wild-type FKBP (tighter)” value in assay [1] is “about 1,000 fold”. Also, the “Shield-1 concentration that can effectively turn on or off viral replication” value in assay [2] worked out at 50 nM.
